# Measured values taken from article PMC7419507, “In vitro Cas9-assisted editing of modular polyketide synthase genes to produce desired natural product derivatives” (Nature Communications, 2020).
# Where “and” joins values, the source holds several entries; their conditions need not be identical. Equal values may be shown once.
# Experiments:
# [1] = Cytotoxicity assay (CellTiter-Glo, 72 h), SKOV-3; format: cell-based, human; details: human, raw replicate data, read-out: SKOV3 viability (%)
# In short: (§1)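 Luminescent ATP read-out (CellTiter-Glo) quantified surviving cells after a 72 h incubation with 2-fold diluted compounds in 0.5% DMSO, added 4 h post-seeding at 1000 cells/well.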
# [2] = test system: human ovarian adenocarcinoma SKOV-3 cells; assay: Cytotoxicity assay (CellTiter-Glo, 72 h), SKOV-3; format: cell-based; details: raw replicate data
# In short: as §1
# [3] = Cytotoxicity assay (CellTiter-Glo, 72 h), MESO-1; format: cell-based; details: human, MESO-1 malignant pleural mesothelioma cells, raw replicate data, read-out: MESO1 viability (%)
# In short: as §1
# [4] = test system: malignant pleural mesothelioma MESO-1 cells; assay: Cytotoxicity assay (CellTiter-Glo, 72 h), MESO-1; format: cell-based; details: raw replicate data
# In short: as §1
# [5] = test system: Jurkat, SKOV-3 and MESO-1 cells; assay: Cytotoxicity assay, statements for all tested cell lines together; format: cell-based; details: Jurkat, SKOV-3 and MESO-1 cells, 72 h
# In short: as §1
# [6] = Cytotoxicity assay (CellTiter-Glo, 72 h), Jurkat; format: cell-based; details: human, Jurkat cells (T lymphoma), raw data (replicates)
# In short: as §1
# T lymphoma Jurkat cells = assay: Cytotoxicity assay (CellTiter-Glo, 72 h), Jurkat; format: cell-based; details: raw data (replicates)
# In short: as §1
compound,measurement,setting,value
COC1CC2CCC(C)C(O)(O2)C(=O)C(=O)N2CCCCC2C(=O)OC(C(C)CC2CCC(O)C(OC)C2)CC(O)CC(=O)C(C)C=C(C)C(O)CC(=O)C(C)CC(C)C=CC=CC=C1C (stereo not shown) [Compound 13],"viability at 72 h, 9.53674e-05 uM","[1]; SKOV-3 cells (ovarian adenocarcinoma), conc 9.53674e-5 uM",101%
same,"viability at 72 h, 0.000190735 uM","[1]; SKOV-3 cells (ovarian adenocarcinoma), conc 0.000190735 uM",105%
same,"viability at 72 h, 0.00038147 uM","[1]; SKOV-3 cells (ovarian adenocarcinoma), conc 0.00038147 uM",103%
same,"viability at 72 h, 0.000762939 uM","[1]; SKOV-3 cells (ovarian adenocarcinoma), conc 0.000762939 uM",104%
same,"viability at 72 h, 0.00152588 uM","[1]; SKOV-3 cells (ovarian adenocarcinoma), conc 0.00152588 uM",106%
same,"viability at 72 h, 0.00305176 uM","[1]; SKOV-3 cells (ovarian adenocarcinoma), conc 0.00305176 uM",104%
same,"viability at 72 h, 0.00610352 uM","[1]; SKOV-3 cells (ovarian adenocarcinoma), conc 0.00610352 uM",104%
same,"viability at 72 h, 0.012207 uM","[1]; SKOV-3 cells (ovarian adenocarcinoma), conc 0.012207 uM",100%
same,"viability at 72 h, 0.0244141 uM","[1]; SKOV-3 cells (ovarian adenocarcinoma), conc 0.0244141 uM",97.8%
same,"viability at 72 h, 0.0488281 uM","[1]; SKOV-3 cells (ovarian adenocarcinoma), conc 0.0488281 uM",100%
same,"viability at 72 h, 0.0976562 uM","[1]; SKOV-3 cells (ovarian adenocarcinoma), conc 0.0976562 uM",93.5%
same,"viability at 72 h, 0.195312 uM","[1]; SKOV-3 cells (ovarian adenocarcinoma), conc 0.195312 uM",80.1%
same,"viability at 72 h, 0.390625 uM","[1]; SKOV-3 cells (ovarian adenocarcinoma), conc 0.390625 uM",72.3%
same,"viability at 72 h, 12.5 uM","[1]; SKOV-3 cells (ovarian adenocarcinoma), conc 12.5 uM",74%
same,"viability at 72 h, 25 uM","[1]; SKOV-3 cells (ovarian adenocarcinoma), conc 25 uM",76.6%
same,"viability at 72 h, 50 uM","[1]; SKOV-3 cells (ovarian adenocarcinoma), conc 50 uM",61.1%
same,"viability at 72 h, 0.78125 uM","[1]; SKOV-3 ovarian adenocarcinoma cells, conc 0.78125 uM",70.5%
same,"viability at 72 h, 1.5625 uM","[1]; SKOV-3 ovarian adenocarcinoma cells, conc 1.5625 uM",74.6%
same,"viability at 72 h, 3.125 uM","[1]; SKOV-3 ovarian adenocarcinoma cells, conc 3.125 uM",67.3%
same,"viability at 72 h, 6.25 uM","[1]; SKOV-3 ovarian adenocarcinoma cells, conc 6.25 uM",76.1%
same,SKOV3 viability (%),[2]; conc 9.53674e-5 uM,107.4% and 106.9%
same,SKOV3 viability (%),[2]; conc 0.000190735 uM,98.8% and 103.7%
same,SKOV3 viability (%),[2]; conc 0.00038147 uM,108.6% and 110.4%
same,SKOV3 viability (%),[2]; conc 0.000762939 uM,108.3% and 103.9%
same,SKOV3 viability (%),[2]; conc 0.00152588 uM,101.0% and 99.9%
same,SKOV3 viability (%),[2]; conc 0.00305176 uM,105.3% and 103.9%
same,SKOV3 viability (%),[2]; conc 0.00610352 uM,110.1% and 106.3%
same,SKOV3 viability (%),[2]; conc 0.012207 uM,101.2% and 96.8%
same,SKOV3 viability (%),[2]; conc 0.0244141 uM,104.0%
same,SKOV3 viability (%),[2]; conc 0.0488281 uM,98.0% and 96.8%
same,SKOV3 viability (%),[2]; conc 0.0976562 uM,97.2% and 95.3%
same,SKOV3 viability (%),[2]; conc 0.195312 uM,69.7% and 74.1%
same,SKOV3 viability (%),[2]; conc 0.390625 uM,69.6% and 63.1%
same,SKOV3 viability (%),[2]; conc 0.78125 uM,63.6% and 66.9%
same,SKOV3 viability (%),[2]; conc 1.5625 uM,66.7%
same,SKOV3 viability (%),[2]; conc 3.125 uM,68.3% and 74.5%
same,SKOV3 viability (%),[2]; conc 6.25 uM,79.3% and 78.5%
same,SKOV3 viability (%),[2]; conc 12.5 uM,75.9%
same,SKOV3 viability (%),[2]; conc 25 uM,73.5% and 81.4%
same,SKOV3 viability (%),[2]; conc 50 uM,55.5% and 58.9%
same,"viability at 72 h, 9.53674e-05 uM",[3]; conc 9.53674e-5 uM,107%
same,"viability at 72 h, 0.000190735 uM",[3]; conc 0.000190735 uM,109%
same,"viability at 72 h, 0.00038147 uM",[3]; conc 0.00038147 uM,103%
same,"viability at 72 h, 0.000762939 uM",[3]; conc 0.000762939 uM,96.5%
same,"viability at 72 h, 0.00152588 uM",[3]; conc 0.00152588 uM,103%
same,"viability at 72 h, 0.00305176 uM",[3]; conc 0.00305176 uM,101%
same,"viability at 72 h, 0.00610352 uM",[3]; conc 0.00610352 uM,108%
same,"viability at 72 h, 0.012207 uM",[3]; conc 0.012207 uM,101%
same,"viability at 72 h, 0.0244141 uM",[3]; conc 0.0244141 uM,95.9%
same,"viability at 72 h, 0.0488281 uM",[3]; conc 0.0488281 uM,92.5%
same,"viability at 72 h, 0.0976562 uM",[3]; conc 0.0976562 uM,82%
same,"viability at 72 h, 0.195312 uM",[3]; conc 0.195312 uM,74.6%
same,"viability at 72 h, 0.390625 uM",[3]; conc 0.390625 uM,77.6%
same,"viability at 72 h, 0.78125 uM",[3]; conc 0.78125 uM,68.5%
same,"viability at 72 h, 1.5625 uM",[3]; conc 1.5625 uM,71.4%
same,"viability at 72 h, 3.125 uM",[3]; conc 3.125 uM,70.6%
same,"viability at 72 h, 6.25 uM",[3]; conc 6.25 uM,68.1%
same,"viability at 72 h, 12.5 uM",[3]; conc 12.5 uM,69.4%
same,"viability at 72 h, 25 uM",[3]; conc 25 uM,61.7%
same,"viability at 72 h, 50 uM",[3]; conc 50 uM,32.5%
same,MESO1 viability (%),[4]; conc 9.53674e-5 uM,98.4% and 101.6%
same,MESO1 viability (%),[4]; conc 0.000190735 uM,99.7% and 102.2%
same,MESO1 viability (%),[4]; conc 0.00038147 uM,106.9% and 102.5%
same,MESO1 viability (%),[4]; conc 0.000762939 uM,98.2% and 93.2%
same,MESO1 viability (%),[4]; conc 0.00152588 uM,104.8% and 103.9%
same,MESO1 viability (%),[4]; conc 0.00305176 uM,98.6% and 103.9%
same,MESO1 viability (%),[4]; conc 0.00610352 uM,105.0% and 100.2%
same,MESO1 viability (%),[4]; conc 0.012207 uM,91.1%
same,MESO1 viability (%),[4]; conc 0.0244141 uM,101.5% and 98.1%
same,MESO1 viability (%),[4]; conc 0.0488281 uM,89.5% and 85.7%
same,MESO1 viability (%),[4]; conc 0.0976562 uM,82.3% and 85.5%
same,MESO1 viability (%),[4]; conc 0.195312 uM,72.4% and 76.8%
same,MESO1 viability (%),[4]; conc 0.390625 uM,77.4% and 73.9%
same,MESO1 viability (%),[4]; conc 0.78125 uM,67.0% and 66.3%
same,MESO1 viability (%),[4]; conc 1.5625 uM,65.2% and 74.0%
same,MESO1 viability (%),[4]; conc 3.125 uM,66.5% and 63.4%
same,MESO1 viability (%),[4]; conc 6.25 uM,73.7% and 75.2%
same,MESO1 viability (%),[4]; conc 12.5 uM,72.5% and 66.5%
same,MESO1 viability (%),[4]; conc 25 uM,64.3% and 66.3%
same,MESO1 viability (%),[4]; conc 50 uM,29.9% and 28.1%
same,"Effect on cell viability, in words",[5],slightly suppressed the cell viabilities
same,"viability at 72 h, 9.53674e-05 uM",[6]; conc 9.53674e-5 uM,100%
same,"viability at 72 h, 0.000190735 uM",[6]; conc 0.000190735 uM,100%
same,"viability at 72 h, 0.00038147 uM",[6]; conc 0.00038147 uM,108%
same,"viability at 72 h, 0.000762939 uM",[6]; conc 0.000762939 uM,103%
same,"viability at 72 h, 0.00152588 uM",[6]; conc 0.00152588 uM,98.1%
same,"viability at 72 h, 0.00305176 uM",[6]; conc 0.00305176 uM,102%
same,"viability at 72 h, 0.00610352 uM",[6]; conc 0.00610352 uM,100%
same,"viability at 72 h, 0.012207 uM",[6]; conc 0.012207 uM,99.4%
same,"viability at 72 h, 0.0244141 uM",[6]; conc 0.0244141 uM,103%
same,"viability at 72 h, 0.0488281 uM",[6]; conc 0.0488281 uM,91.3%
same,"viability at 72 h, 0.0976562 uM",[6]; conc 0.0976562 uM,69.5%
same,"viability at 72 h, 0.195312 uM",[6]; conc 0.195312 uM,47.2%
same,"viability at 72 h, 0.390625 uM",[6]; conc 0.390625 uM,37.5%
same,"viability at 72 h, 0.78125 uM",[6]; conc 0.78125 uM,31.7%
same,"viability at 72 h, 1.5625 uM",[6]; conc 1.5625 uM,30.7%
same,"viability at 72 h, 3.125 uM",[6]; conc 3.125 uM,30.2%
same,"viability at 72 h, 6.25 uM",[6]; conc 6.25 uM,29.2%
same,"viability at 72 h, 12.5 uM",[6]; conc 12.5 uM,30.8%
same,"viability at 72 h, 25 uM",[6]; conc 25 uM,24.7%
same,"viability at 72 h, 50 uM",[6]; conc 50 uM,2.2%
same,Jurkat viability (%),T lymphoma Jurkat cells; conc 9.53674e-5 uM,112.6% and 105.4%
same,Jurkat viability (%),T lymphoma Jurkat cells; conc 0.000190735 uM,101.3% and 101.6%
same,Jurkat viability (%),T lymphoma Jurkat cells; conc 0.00038147 uM,104.4% and 104.8%
same,Jurkat viability (%),T lymphoma Jurkat cells; conc 0.000762939 uM,96.6% and 102.2%
same,Jurkat viability (%),T lymphoma Jurkat cells; conc 0.00152588 uM,101.0% and 107.9%
same,Jurkat viability (%),T lymphoma Jurkat cells; conc 0.00305176 uM,103.0% and 101.6%
same,Jurkat viability (%),T lymphoma Jurkat cells; conc 0.00610352 uM,107.7% and 103.5%
same,Jurkat viability (%),T lymphoma Jurkat cells; conc 0.012207 uM,102.1% and 101.9%
same,Jurkat viability (%),T lymphoma Jurkat cells; conc 0.0244141 uM,102.7% and 105.0%
same,Jurkat viability (%),T lymphoma Jurkat cells; conc 0.0488281 uM,92.1% and 89.3%
same,Jurkat viability (%),T lymphoma Jurkat cells; conc 0.0976562 uM,67.5% and 74.1%
same,Jurkat viability (%),T lymphoma Jurkat cells; conc 0.195312 uM,42.7% and 42.9%
same,Jurkat viability (%),T lymphoma Jurkat cells; conc 0.390625 uM,37.1% and 36.6%
same,Jurkat viability (%),T lymphoma Jurkat cells; conc 0.78125 uM,31.2% and 32.9%
same,Jurkat viability (%),T lymphoma Jurkat cells; conc 1.5625 uM,32.3%
same,Jurkat viability (%),T lymphoma Jurkat cells; conc 3.125 uM,28.8% and 27.1%
same,Jurkat viability (%),T lymphoma Jurkat cells; conc 6.25 uM,32.0% and 30.5%
same,Jurkat viability (%),T lymphoma Jurkat cells; conc 12.5 uM,29.9%
same,Jurkat viability (%),T lymphoma Jurkat cells; conc 25 uM,25.3% and 24.9%
same,Jurkat viability (%),T lymphoma Jurkat cells; conc 50 uM,1.7% and 1.8%
